Test results published in patent US20220380378A1 (ESSA Pharma, Inc., priority 2021, published 2022).

Target: T1, androgen receptor (AR) (Homo sapiens, UniProt P10275, T878A)
T1 sequence (P10275 1-920 T878A): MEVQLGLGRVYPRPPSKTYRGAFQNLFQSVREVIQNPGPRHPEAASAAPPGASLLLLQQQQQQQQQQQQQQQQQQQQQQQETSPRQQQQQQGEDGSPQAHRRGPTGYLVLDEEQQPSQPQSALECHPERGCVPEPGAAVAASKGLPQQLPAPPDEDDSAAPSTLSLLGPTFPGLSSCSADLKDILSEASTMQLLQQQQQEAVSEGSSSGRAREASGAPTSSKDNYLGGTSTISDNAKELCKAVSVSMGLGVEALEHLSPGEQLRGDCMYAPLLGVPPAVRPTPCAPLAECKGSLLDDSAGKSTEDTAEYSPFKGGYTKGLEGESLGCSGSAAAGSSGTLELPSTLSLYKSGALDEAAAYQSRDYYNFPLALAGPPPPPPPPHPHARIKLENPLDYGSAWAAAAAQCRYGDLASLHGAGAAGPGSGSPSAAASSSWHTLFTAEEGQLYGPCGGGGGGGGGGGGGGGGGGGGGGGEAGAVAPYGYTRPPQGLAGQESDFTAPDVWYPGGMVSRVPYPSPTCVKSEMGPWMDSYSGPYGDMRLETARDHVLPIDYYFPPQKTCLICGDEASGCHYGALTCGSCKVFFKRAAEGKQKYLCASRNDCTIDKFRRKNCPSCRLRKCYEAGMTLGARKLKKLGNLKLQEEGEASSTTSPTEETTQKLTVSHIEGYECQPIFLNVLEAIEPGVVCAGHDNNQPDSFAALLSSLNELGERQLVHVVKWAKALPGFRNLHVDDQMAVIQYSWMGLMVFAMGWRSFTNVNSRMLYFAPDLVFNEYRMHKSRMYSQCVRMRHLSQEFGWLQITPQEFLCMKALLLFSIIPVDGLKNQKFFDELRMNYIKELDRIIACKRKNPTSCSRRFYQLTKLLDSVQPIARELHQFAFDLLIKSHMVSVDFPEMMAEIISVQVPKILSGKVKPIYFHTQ
Experiment: Androgen-induced PSA (6.1 kb)-luciferase reporter assay in LNCaP cells (R1881 1 nM)
Format: cell-based
Design: endogenous in cells; host or cells: LNCaP
Conditions: 24 h, read-out: PSA-Luc IC50 Range
Method in brief: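 Compound or vehicle was added 1 h before 1 nM R1881 to LNCaP cells carrying a transiently transfected (24 h) PSA (6.1 kb)-luciferase reporter. After 24 h androgen exposure, lysate luminescence was normalized to protein and expressed versus vehicle plus R1881 for IC50.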

| SMILES | IC50 [nM] |
| --- | --- |
| CS(=O)(=O)N1CC2(CN(Cc3ccc4c(ccn4-c4cc(Cl)c(OCCCl)c(C#N)c4)c3)C2)C1 [Compound A241, 3-chloro-2-(2-chloroethoxy)-5-(5-((6-(methylsulfonyl)-2,6-diazaspiro[3.3]heptan-2-yl)methyl)-1H-indol-1-yl)benzonitrile] | > 2000 |
| CS(=O)(=O)N[C@H]1CC[C@H](Oc2ccc3c(ccn3-c3cc(Cl)c(OCCCl)c(C#N)c3)c2)CC1 [Compound A242] | 500 to 2000 |
| CC(C)(c1ccc(-c2cnc3c(c2)C(NS(C)(=O)=O)CCC3)cc1)c1cc(Cl)c(OCCCl)c(C#N)c1 (centres unmarked) [Compound A243] | > 2000 |
| CC1(NS(C)(=O)=O)CN(CCc2ccc3c(ccn3-c3cc(Cl)c(OCCCl)c(C#N)c3)c2)C1 [Compound A244] | > 2000 |
| CS(=O)(=O)NC1CCCN(CCc2ccc3c(ccn3-c3cc(Cl)c(OCCCl)c(C#N)c3)c2)C1 (centres unmarked) [Compound A245] | > 2000 |
| CS(=O)(=O)NC12CC(COc3ccc4c(c3)CCCC4c3cc(Cl)c(OCCCl)c(C#N)c3)(C1)C2 (centres unmarked) [Compound A247] | > 2000 |
| CS(=O)(=O)NCC1CCN1CCc1ccc2c(ccn2-c2cc(Cl)c(OCCCl)c(C#N)c2)c1 (centres unmarked) [Compound A248] | > 2000 |
| CS(=O)(=O)N1CCC12CN(CCc1ccc3c(ccn3-c3cc(Cl)c(OCCCl)c(C#N)c3)c1)C2 [Compound A249] | > 2000 |
| CC(C)(c1ccc(OCc2ccnc(NS(C)(=O)=O)n2)cc1)c1cc(F)c(N2CCC2)c(C#N)c1 [Compound A251] | 500 to 2000 |
| CC1CN(c2c(F)cc(C(C)(C)c3ccc(OCc4ccnc(NS(C)(=O)=O)n4)cc3)cc2C#N)C1 [Compound A252] | 500 to 2000 |
| CC(C)(c1ccc(OCc2ccnc(NS(C)(=O)=O)n2)cc1)c1cc(F)c(N2CC(CO)C2)c(C#N)c1 [Compound A253] | > 2000 |
| CC(C)(c1ccc(-c2ccc3oc(NS(C)(=O)=O)nc3c2)cc1)c1cc(Cl)c(OCCCl)c(C#N)c1 [Compound A255] | 500 to 2000 |
| CC(C)(c1ccc(-c2cnc3oc(NS(C)(=O)=O)nc3c2)cc1)c1cc(Cl)c(OCCCl)c(C#N)c1 [Compound A256] | > 2000 |
| CC(C)(c1ccc(-c2cnc3nc(NS(C)(=O)=O)oc3c2)cc1)c1cc(Cl)c(OCCCl)c(C#N)c1 [Compound A257] | > 2000 |
| CC(C)(c1ccc(OCc2ccnc(NS(C)(=O)=O)n2)cc1)c1cc(Cl)c(OCC(O)CCl)c(C#N)c1 (centres unmarked) [Compound A258] | > 2000 |
| CC(C)(c1ccc(OCc2ccnc(NS(C)(=O)=O)n2)cc1)c1cc(F)c(N2CC(O)C2)c(C#N)c1 [Compound A259] | < 500 |
| CC1(C)CN(c2c(F)cc(C(C)(C)c3ccc(OCc4ccnc(NS(C)(=O)=O)n4)cc3)cc2C#N)C1 [Compound A260] | 500 to 2000 |
| CC(C)(c1ccc(OCc2ccnc(NS(C)(=O)=O)n2)cc1)c1cc(F)c(N2CCCCC2)c(C#N)c1 [Compound A261] | 500 to 2000 |
| CC(C)(c1ccc(-c2cc3cnc(NS(C)(=O)=O)nn3c2)cc1)c1cc(Cl)c(OCCCl)c(C#N)c1 [Compound A263] | > 2000 |
| C[C@H](Oc1ccc(C(C)(C)c2cc(Cl)c(OCCCl)c(C#N)c2)cc1)C12CC(NS(C)(=O)=O)(C1)C2 [Compound A265] | 500 to 2000 |
| CS(=O)(=O)N[C@H]1C[C@H](COc2ccc3c(c2)CCC3c2cc(Cl)c(OCCCl)c(C#N)c2)C1 (some centres unmarked) [Compound A266] | 500 to 2000 |
| CC(C)(c1ccc(OCc2ccnc(NS(C)(=O)=O)n2)cc1)c1cc(Cl)c(N2CC3(CCC3)C2)c(C#N)c1 [Compound A267] | 500 to 2000 |
| COc1c(Cl)cc(C(C)(C)c2ccc(OCC34CC(NS(C)(=O)=O)(C3)C4)cc2)cc1C#N [Compound A268] | 500 to 2000 |
| CC(C)(c1ccc(OCC23CCC(NS(C)(=O)=O)(C2)C3)cc1)c1cc(Cl)c(OCCCl)c(C#N)c1 [Compound A271] | 500 to 2000 |
| CC(C)(c1ccc(OCC23CCC(NS(C)(=O)=O)(CC2)C3)cc1)c1cc(Cl)c(OCCCl)c(C#N)c1 [Compound A272] | 500 to 2000 |
| CC(C)(c1ccc(OCC23CCC(NS(C)(=O)=O)(CC2)CC3)cc1)c1cc(Cl)c(OCCCl)c(C#N)c1 [Compound A273] | 500 to 2000 |
